Experiments:
Format in all cases: in vivo
Euschistus heros = Euschistus heros (neotropical brown stink bug), sprayed soybean leaves, N2 nymphs; conditions: 120 h, spray on soybean leaves, 5 days after infestation, read-out: effect in at least one of the two categories (mortality or growth inhibition)
Description: Euschistus heros (Neotropical Brown Stink Bug)
Soybean leaves on agar in 24-well microtiter plates were sprayed with aqueous test solutions prepared from 10′000 ppm DMSO stock solutions. After drying the leaves were infested with N2 nymphs. The samples were assessed for mortality and growth inhibition in comparison to untreated samples 5 days after infestation.
The following compounds gave an effect of at least 80% in at least one of the two categories (mortality or growth inhibition) at an application rate of 200 ppm: A1, A2

Tetranychus urticae = Tetranychus urticae (two-spotted spider mite) feeding/contact activity; conditions: foliar, 192 h, spray on bean leaf discs, mixed population (mobile stages), 8 days after infestation
Description: Tetranychus urticae (Two-Spotted Spider Mite): Feeding/Contact Activity
Bean leaf discs on agar in 24-well microtiter plates were sprayed with aqueous test solutions prepared from 10′000 ppm DMSO stock solutions. After drying the leaf discs were infested with a mite population of mixed ages. The samples were assessed for mortality on mixed population (mobile stages) 8 days after infestation.

Plutella xylostella [1] = test: Plutella xylostella (diamond back moth), artificial diet, L2 larvae; conditions: 120 h, 5 days after infestation, read-out: effect in at least one of the two categories (mortality or growth inhibition)
Description: (§1) Plutella xylostella (Diamond Back Moth)
(§2) 24-well microtiter plates with artificial diet were treated with aqueous test solutions prepared from 10′000 ppm DMSO stock solutions by pipetting. After drying, the plates were infested with L2 larvae (10 to 15 per well). The samples were assessed for mortality and growth inhibition in comparison to untreated samples 5 days after infestation.
The following compounds gave an effect of at least 80% in at least one of the two categories (mortality or growth inhibition) at an application rate of 200 ppm: A1

Diabrotica balteata = Diabrotica balteata (corn root worm), sprayed maize sprouts, L2 larvae; conditions: 96 h, spray on maize sprouts, 4 days after infestation, read-out: effect in at least one of the two categories (mortality or growth inhibition)
Description: Diabrotica balteata (Corn Root Worm)
Maize sprouts placed onto an agar layer in 24-well microtiter plates were treated with aqueous test solutions prepared from 10′000 ppm DMSO stock solutions by spraying. After drying, the plates were infested with L2 larvae (6 to 10 per well). The samples were assessed for mortality and growth inhibition in comparison to untreated samples 4 days after infestation. The following compounds gave an effect of at least 80% in at least one of the two categories (mortality or growth inhibition) at an application rate of 200 ppm: A1

Spodoptera littoralis = Spodoptera littoralis (Egyptian cotton leaf worm), sprayed cotton leaf discs, L1 larvae; conditions: foliar, 72 h, spray on cotton leaf discs, 3 days after infestation, read-out: control (mortality, anti-feeding effect or growth inhibition)
Description: Spodoptera littoralis (Egyptian Cotton Leaf Worm)
Cotton leaf discs were placed onto agar in 24-well microtiter plates and sprayed with aqueous test solutions prepared from 10′000 ppm DMSO stock solutions. After drying the leaf discs were infested with five L1 larvae. The samples were assessed for mortality, anti-feeding effect, and growth inhibition in comparison to untreated samples 3 days after infestation. Control of Spodoptera littoralis by a test sample is given when at least one of the categories mortality, anti-feedant effect, and growth inhibition is higher than the untreated sample.

Thrips tabaci = Thrips tabaci (onion thrips) feeding/contact activity; conditions: foliar, 144 h, spray on sunflower leaf discs, mixed ages, 6 days after infestation
Description: Thrips tabaci (Onion Thrips) Feeding/Contact Activity
Sunflower leaf discs were placed on agar in 24-well microtiter plates and sprayed with aqueous test solutions prepared from 10′000 ppm DMSO stock solutions. After drying the leaf discs were infested with a thrips population of mixed ages. The samples were assessed for mortality 6 days after infestation.

Plutella xylostella [2] = test: Plutella xylostella (diamond back moth), artificial diet, eggs; conditions: 192 h, 8 days after infestation, read-out: effect in at least one of the two categories (mortality or growth inhibition)
Description: as §1
as §2, with “drying, Plutella eggs were pipetted through a plastic stencil onto a gel blotting paper and” for “drying,”, “plate was closed” for “plates were infested”, “it.” for “L2 larvae (10 to 15 per well).”, “8” for “5”
The following compounds gave an effect of at least 80% in at least one of the two categories (mortality or growth inhibition) at an application rate of 200 ppm: A2

COC(=O)N(C(=O)c1ccc(C2=NO[C@@](c3cc(Cl)c(F)c(Cl)c3)(C(F)(F)F)C2)cc1C)C1CN(S(=O)(=O)C(F)F)C1 [A1, methyl N-[4-[(5S)-5-(3,5-dichloro-4-fluoro-phenyl)-5-(trifluoromethyl)-4H-isoxazol-3-yl]-2-methyl-benzoyl]-N-[1-(difluoromethylsulfonyl)azetidin-3-yl]carbamate]
≥ 80%: percent effect (mortality or growth inhibition) at 200 ppm (Euschistus heros) | mortality at 200 ppm (Tetranychus urticae) | percent effect (mortality or growth inhibition) at 200 ppm (Plutella xylostella [1]) | percent effect (mortality or growth inhibition) at 200 ppm (Diabrotica balteata) | percent control (mortality, anti-feedant effect or growth inhibition) at 200 ppm (Spodoptera littoralis) | mortality at 200 ppm (Thrips tabaci)

CCOC(=O)N(C(=O)c1ccc(C2=NO[C@@](c3cc(Cl)c(F)c(Cl)c3)(C(F)(F)F)C2)cc1C)C1CN(S(=O)(=O)C(F)F)C1 [A2, ethyl N-[4-[(5S)-5-(3,5-dichloro-4-fluoro-phenyl)-5-(trifluoromethyl)-4H-isoxazol-3-yl]-2-methyl-benzoyl]-N-[1-(difluoromethylsulfonyl)azetidin-3-yl]carbamate]
≥ 80%: percent effect (mortality or growth inhibition) at 200 ppm (Euschistus heros) | percent control (mortality, anti-feedant effect or growth inhibition) at 200 ppm (Spodoptera littoralis) | percent effect (mortality or growth inhibition) at 200 ppm (Plutella xylostella [2])

Source: US20210340131A1, “PESTICIDALLY ACTIVE ISOXAZOLINE D[…] AMIDE GROUP AND AN AZETIDINE SULFONE GROUP” (SYNGENTA CROP PROTECTION AG, priority 2018, published 2021)
